Results published in patent US20200069691A1, “HETEROCYCLIC COMPOUNDS AS HIV PROTEASE INHIBITORS” (Merck Sharp & Dohme Corp., priority 2016, published 2020).
pIC50: −log10 of the molar value.

target: T1, wild-type HIV-1 protease (Human immunodeficiency virus type 1 group M subtype B, UniProt P04585); test: Assay for Inhibition of Microbial Expressed HIV Protease (peptide substrate cleavage, LC-MS/MS readout); format: biochemical; settings: E. coli expressed wild-type HIV-1 protease, mean of at least two independent experiments, read-out: HIV Pr Enzyme HIV1 PR IC50
T1 construct: Escherichia coli expressed wild-type HIV-1 protease protein
Outline: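 Cleavage of Val-Ser-Gln-Asn-(β-naphthyl)Ala-Pro-Ile-Val (400 μM) by recombinant HIV-1 protease ([…]) ran 1 h at 30 °C after a 30 min room-temperature inhibitor preincubation in 50 mM sodium acetate pH 5.5. Product peak areas by LC-MS/MS gave inhibition; values average at least two independent runs.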

Row | Compound | pIC50
1 | CN(C)C(=O)c1nc2n(c1Cl)CCN(C(=O)c1cccc(CN3C(=N)NC(c4ccccc4)(c4ccccc4)C3=O)c1)C2 [Compound 327, 3-chloro-7-({3-[(2-imino-5-oxo-4,4-diphenylimidazolidin-1-yl)methyl]phenyl}carbonyl)-N,N-dimethyl-5,6,7,8-tetrahydroimidazo[1,2-a]pyrazine-2-carboxamide] | 7.19
2 | COC(=O)Nc1ncc2c(n1)CN(C(=O)c1cccc(CN3C(=N)NC(c4ccccc4)(c4ccccc4)C3=O)c1)C2 [Compound 190, methyl [6-({3-[(2-imino-5-oxo-4,4-diphenylimidazolidin-1-yl)methyl]phenyl}carbonyl)-6,7-dihydro-5H-pyrrolo[3,4-d]pyrimidin-2-yl]carbamate] | 8.41
3 | N=C1NC(c2ccccc2)(c2ccccc2)C(=O)N1Cc1ccc(F)c(C(=O)N2Cc3nccnc3C2)c1 [Compound 379, 3-[3-(5,7-dihydro-6H-pyrrolo[3,4-b]pyrazin-6-ylcarbonyl)-4-fluorobenzyl]-2-imino-5,5-diphenylimidazolidin-4-one] | 7.97
4 | CN1CCN(C(=O)c2cc(CN3C(=N)NC(c4ccccc4)(c4ccccc4)C3=O)ccc2Cl)CC1=O [Compound 378, 4-({2-chloro-5-[(2-imino-5-oxo-4,4-diphenylimidazolidin-1-yl)methyl]phenyl}carbonyl)-1-methylpiperazin-2-one] | 7.97
5 | COc1cc(-c2ncc3c(n2)CN(C(=O)c2cc(CN4C(=N)N[C@](CCCC(F)(F)F)(c5ccc(F)cc5)C4=O)ccc2C(F)(F)F)C3)ccn1 [Compound 52, (5R)-5-(4-fluorophenyl)-2-imino-3-[3-{[2-(2-methoxypyridin-4-yl)-5,7-dihydro-6H-pyrrolo[3,4-d]pyrimidin-6-yl]carbonyl}-4-(trifluoromethyl)benzyl]-5-(4,4,4-trifluorobutyl)imidazolidin-4-one] | 8.25
6 | COc1ccc2c(c1)CCN(C(=O)c1cc(CN3C(=N)NC(c4ccc(F)cc4)(c4ccc(F)cc4)C3=O)ccc1C(F)(F)F)CC2 [Compound 165, 5.5-bis(4-fluorophenyl)-2-imino-3-{3-[(7-methoxy-1,2,4,5-tetrahydro-3H-3-benzazepin-3-yl)carbonyl]-4-(trifluoromethyl)benzyl} imidazolidin-4-one] | 7.47
7 | N=C1NC(c2ccccc2)(c2ccccc2)C(=O)N1Cc1cc(C(=O)N2Cc3cncnc3C2)ccn1 [Compound 401, 3-{[4-(5,7-dihydro-6H-pyrrolo[3,4-d]pyrimidin-6-ylcarbonyl)pyridin-2-yl]methyl}-2-imino-5,5-diphenylimidazolidin-4-one] | 7.50
8 | C[C@H](c1cccc(C(=O)N2Cc3nccnc3C2)c1)N1C(=N)NC(c2ccccc2)(c2ccccc2)C1=O [Compound 185, 3-{(1R)-1-[3-(5,7-dihydro-6H-pyrrolo[3,4-b]pyrazin-6-ylcarbonyl)phenyl]ethyl}-2-imino-5,5-diphenylimidazolidin-4-one] | 7.39
9 | CC(C)CC1(c2ccccc2)NC(=N)N(Cc2cccc(C(=O)N3CCN(c4ccccn4)CC3)c2)C1=O (stereo not shown) [Compound 321, 2-imino-5-(2-methylpropyl)-5-phenyl-3-{3-[(4-pyridin-2-ylpiperazin-1-yl)carbonyl]benzyl} imidazolidin-4-one] | 7.25
10 | N=C1NC(c2ccccc2)(c2ccccc2)C(=O)N1Cc1cccc(C(=O)N2Cc3cc(Cl)c(Cl)cc3C2)c1 [Compound 271, 3-{3-[(5,6-dichloro-1,3-dihydro-2H-isoindol-2-yl)carbonyl]benzyl}-2-imino-5,5-diphenylimidazolidin-4-one] | 7.55
11 | N=C1N[C@](CCCC(F)(F)F)(c2ccc(F)cc2)C(=O)N1Cc1ccc(C(F)(F)F)c(C(=O)N2Cc3cnc(-c4ccc(-n5cccn5)nc4)nc3C2)c1 [Compound 89, (5R)-5-(4-fluorophenyl)-2-imino-3-[3-({2-[6-(1H-pyrazol-1-yl)pyridin-3-yl]-5,7-dihydro-6H-pyrrolo[3,4-d]pyrimidin-6-yl}carbonyl)-4-(trifluoromethyl)benzyl]-5-(4,4,4-trifluorobutyl)imidazolidin-4-one] | 7.80
12 | COC(=O)Nc1ncc2c(n1)CN(C(=O)c1ccc3c(c1)[C@H](N1C(=N)N[C@](CCC(C)C)(c4ccccc4)C1=O)CC3)C2 [Compound 96, methyl [6-({(3R)-3-[(4R)-2-imino-4-(3-methylbutyl)-5-oxo-4-phenylimidazolidin-1-yl]-2,3-dihydro-1H-inden-5-yl}carbonyl)-6,7-dihydro-5H-pyrrolo[3,4-d]pyrimidin-2-yl]carbamate] | 7.69
13 | N=C1NC(CCC2CC2)(c2ccc(-c3cccnc3)cc2)C(=O)N1Cc1ccc(C(F)(F)F)c(C(=O)N2Cc3nccnc3C2)c1 (stereo not shown) [Compound 76, 5-(2-cyclopropylethyl)-3-[3-(5,7-dihydro-6H-pyrrolo[3,4-b]pyrazin-6-ylcarbonyl)-4-(trifluoromethyl-)benzyl]-2-imino-5-(4-pyridin-3-ylphenyl) imidazolidin-4-one] | 7.98
14 | C[C@@H](c1cccc(C(=O)N2Cc3ccccc3C2)c1)N1C(=N)NC(c2ccc(F)cc2)(c2ccc(F)cc2)C1=O [Compound 325, 3-{(1S)-1-[3-(1,3-dihydro-2H-isoindol-2-ylcarbonyl)phenyl]ethyl}-5,5-bis(4-fluorophenyl)-2-iminoimidazolidin-4-one] | 7.23
15 | Cc1ncc2c(n1)CN(C(=O)c1cccc(CN3C(=N)NC(c4ccccc4)(c4ccccc4)C3=O)c1)C2 [Compound 290, 2-imino-3-{3-[(2-methyl-5,7-dihydro-6H-pyrrolo[3,4-d]pyrimidin-6-yl)carbonyl]benzyl}-5,5-diphenylimidazolidin-4-one] | 7.44
16 | N=C1N[C@](CCCC(F)(F)F)(c2ccc(F)cc2)C(=O)N1Cc1ccc(C(F)(F)F)c(C(=O)N2Cc3cnc(-c4cccc(-n5nccn5)c4)nc3C2)c1 [Compound 95, (5R)-5-(4-fluorophenyl)-2-imino-3-[3-({2-[3-(2H-1,2,3-triazol-2-yl)phenyl]-5,7-dihydro-6H-pyrrolo-[3,4-d]pyrimidin-6-yl}carbonyl)-4-(trifluoromethyl)benzyl]-5-(4,4,4-trifluorobutyl)imidazolidin-4-one] | 7.71
17 | CC(C)CCC1(c2ccc(F)cc2)NC(=N)N(Cc2ccc(C(F)(F)F)c(C(=O)N3C[C@@H]4C(=O)NC(=O)[C@]4(c4ccccc4)C3)c2)C1=O (stereo partly drawn) [Compound 159, (3aR,6aR)-5-{[5-{[4-(4-fluorophenyl)-2-imino-4-(3-methylbutyl)-5-oxoimidazolidin-1-yl]methyl}-2-(trifluoromethyl)-phenyl]carbonyl}-3a-phenyltetrahydropyrrolo [3,4-c]pyrrole-1,3 (2H,3aH)-dione] | 7.80
18 | CC(C)C[C@]1(c2ccccc2)NC(=N)N([C@H](C)c2cccc(C(=O)N3Cc4nccnc4C3)c2)C1=O [Compound 237, 3-{(1R)-1-[3-(5,7-dihydro-6H-pyrrolo[3,4-b]pyrazin-6-ylcarbonyl)phenyl]ethyl}-2-imino-5-(2-methylpropvl)-5-phenylimidazolidin-4-one] | 7.84
19 | CN(C)c1ncc2c(n1)CN(C(=O)c1cc(CN3C(=N)N[C@](CCCC(F)(F)F)(c4ccc(F)cc4)C3=O)ccc1C(F)(F)F)C2 [Compound 80, (5R)-3-[3-{[2-(dimethylamino)-5,7-dihydro-6H-pyrrolo[3,4-d]pyrimidin-6-yl]carbonyl}-4-(trifluoromethyl)benzyl]-5-(4-fluorophenyl)-2-imino-5-(4,4,4-trifluorobutyl)imidazolidin-4-one] | 7.94
